Experimental findings from ChEMBL document CHEMBL1201862, “PubChem BioAssay data set” (2004) are described below.

Some test systems named below: UACC-62; MOLT-4; SNB-19; CAKI-1; HCT-15; Malme-3M; OVCAR-3; HCT-116; LOX IMVI; SK-MEL-2; PC-3; HOP-62; ACHN; COLO 205; MDA-MB-231; RXF 393; KM12; SK-MEL-5; BT-549.
Holding throughout (assay): NCI anticancer screen, dose series, 48 h

Molecules are shown by their SMILES.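 Briefly, cells in 96-well plates were exposed to five compound concentrations for 48 h, and endpoints were estimated by linear interpolation. The concentration for 50% growth inhibition is given as GI50.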 Active and inactive are the calls of the source. Cut-off read from the data, not from the text of the source: active = GI50 up to about 1.1 µM and inactive = higher.

On to `N[C@H]1CCN(c2c(F)cc3c(=O)c(C(=O)O)cn4c3c2Oc2c-4ccc3c2ccc2ccccc23)C1`, for which the GI50 in the assay on UACC-62 is 5.68 µM (inactive); in the assay with MOLT-4 it was 0.0643 µM (active); in the assay with SNB-19, 1.33 µM (inactive); in the assay on CAKI-1, 2.79 µM (inactive); in the assay on HCT-15, 0.364 µM; in the assay on Malme-3M it was 16.9 µM (inactive). The GI50 was 13.1 µM (inactive) with OVCAR-3; 0.492 µM (active) in the assay on HCT-116; 0.56 µM (active) in the assay on LOX IMVI; 9.77 µM (inactive) in the assay with SK-MEL-2; 0.935 µM (active) with PC-3; 1.07 µM (active) in the assay on HOP-62. In addition, the GI50 in the assay on ACHN is 0.23 µM (active); with COLO 205, 1.13 µM (inactive); in the assay with MDA-MB-231, 4.91 µM (inactive); with RXF 393, 0.255 µM (active); in the assay on KM12 it was 1 µM (active); with SK-MEL-5 it was 0.776 µM (active).
Take `CN(C)CCCN1c2ccc([N+](=O)[O-])cc2CCc2cccc([N+](=O)[O-])c21`: the GI50 in the assay with UACC-62 was 3.37 µM (inactive); in the assay with MOLT-4 it was 15.8 µM (inactive); in the assay on SNB-19, 17.5 µM (inactive); with HCT-15, 15.5 µM; with Malme-3M it was 14.1 µM (inactive); with OVCAR-3, 15.4 µM (inactive). Further, the GI50 was 14.3 µM (inactive) in the assay on HCT-116; 16.5 µM (inactive) with LOX IMVI; 18.7 µM (inactive) in the assay with SK-MEL-2; 16.7 µM (inactive) in the assay with PC-3; 13.8 µM (inactive) with HOP-62; 17.6 µM (inactive) in the assay on ACHN. Besides, the GI50 with COLO 205 is 12.8 µM (inactive); in the assay with MDA-MB-231 it was 13.1 µM (inactive); with RXF 393, 10.5 µM (inactive); in the assay on KM12, 15.6 µM (inactive); with SK-MEL-5, 15.2 µM (inactive).
Take `CC1C(c2ccc3c(c2)OCO3)c2cc3c(cc2OC1N1CCCCC1)OCO3` (configuration not stated): the GI50 is 88.9 µM (inactive) in the assay with UACC-62; 36.7 µM (inactive) with MOLT-4; 48.9 µM (inactive) in the assay on SNB-19; 23.4 µM (inactive) in the assay with CAKI-1; 50.4 µM in the assay on HCT-15; 41.6 µM (inactive) with OVCAR-3. Further, the GI50 was 42.6 µM (inactive) in the assay on HCT-116; 82.2 µM (inactive) in the assay with LOX IMVI; 33.6 µM (inactive) in the assay with SK-MEL-2; 37.5 µM (inactive) with PC-3; > 100 µM (inactive) in the assay on HOP-62; 59.6 µM (inactive) with ACHN. The GI50 was 36.5 µM (inactive) in the assay with COLO 205, 41.9 µM (inactive) with KM12 and 54.6 µM (inactive) in the assay on SK-MEL-5.
As to `Cc1ccc([N+](=O)[O-])c2c(NCC(O)CO)ccnc12` (configuration not stated), the GI50 in the assay on UACC-62 was 30.3 µM (inactive); in the assay with BT-549, 47 µM (inactive); in the assay with MOLT-4 it was > 100 µM (inactive); in the assay with SNB-19 it was 90.8 µM (inactive); in the assay on CAKI-1 it was 54 µM (inactive); with HCT-15, 28.8 µM. In addition, the GI50 in the assay on Malme-3M is 16.4 µM (inactive); with OVCAR-3 it was 36.1 µM (inactive); in the assay with HCT-116 it was 44.4 µM (inactive); in the assay with LOX IMVI, 37.6 µM (inactive); in the assay with SK-MEL-2 it was 14.3 µM (inactive); in the assay with PC-3, 70.3 µM (inactive). In addition, the GI50 with HOP-62 is 73.8 µM (inactive); in the assay with ACHN, 57.5 µM (inactive); with COLO 205, 25.5 µM (inactive); with RXF 393, 45.9 µM (inactive); with KM12, 32.2 µM (inactive); in the assay on SK-MEL-5, 18.6 µM (inactive).
Turning to `O=C1CCc2cc(Br)ccc2O1`, the GI50 in the assay on UACC-62 was > 100 µM (inactive); in the assay with BT-549 it was 62.8 µM (inactive); in the assay with MOLT-4, > 100 µM (inactive); with SNB-19 it was 25 µM (inactive); with CAKI-1, 38.4 µM (inactive); in the assay with HCT-15, over 100 µM. The GI50 was > 100 µM (inactive) in the assay with Malme-3M; > 100 µM (inactive) with OVCAR-3; 42 µM (inactive) in the assay with HCT-116; 50.5 µM (inactive) with LOX IMVI; > 100 µM (inactive) with SK-MEL-2; > 100 µM (inactive) in the assay with PC-3. In addition, the GI50 with HOP-62 was 22.4 µM (inactive); with ACHN, 49.1 µM (inactive); with COLO 205 it was > 100 µM (inactive); with RXF 393 it was 28.2 µM (inactive); in the assay on SK-MEL-5, 26.4 µM (inactive).
Take `CC(C)(C)OC(=O)NNC(=O)C1Cc2ccccc2OC1=O` (configuration not stated): the GI50 was > 100 µM (inactive) with UACC-62; > 100 µM (inactive) in the assay with BT-549; > 100 µM (inactive) with MOLT-4; > 100 µM (inactive) with SNB-19; > 100 µM (inactive) in the assay with CAKI-1; over 100 µM with HCT-15. The GI50 in the assay with Malme-3M, in the assay with OVCAR-3, with HCT-116, in the assay on SK-MEL-2, in the assay on PC-3 and in the assay on HOP-62 was > 100 µM (inactive) each time. Also, the GI50 with ACHN, with RXF 393, with KM12 and with SK-MEL-5 was > 100 µM (inactive) each time.
As for `CC(=O)CC1(O)C(=O)c2c(Br)sc(Br)c2C1=O`, the GI50 with UACC-62 was 21 µM (inactive); in the assay on BT-549, 19 µM (inactive); in the assay on MOLT-4 it was 32.4 µM (inactive); in the assay on SNB-19, 55.5 µM (inactive); in the assay on CAKI-1, 17.3 µM (inactive); in the assay with HCT-15 it was 20.4 µM. Moreover, the GI50 in the assay on Malme-3M was 18.1 µM (inactive); in the assay with OVCAR-3, 16.9 µM (inactive); with HCT-116 it was 19.8 µM (inactive); with LOX IMVI, 17.7 µM (inactive); with SK-MEL-2, 22.2 µM (inactive); with PC-3, 20.6 µM (inactive). Besides, the GI50 with HOP-62 was 29 µM (inactive); in the assay with ACHN, 34.3 µM (inactive); in the assay with COLO 205 it was 18.7 µM (inactive); in the assay on RXF 393, 24.7 µM (inactive); in the assay on KM12 it was 34.3 µM (inactive); with SK-MEL-5, 18.4 µM (inactive).
For `Oc1ccccc1/C=N/N1C(=S)N(c2ccccc2)C(=N\c2ccccc2)/C1=N/c1ccccc1`, the GI50 with UACC-62 was 13.9 µM (inactive); with MOLT-4, > 33.3 µM (inactive); in the assay with SNB-19 it was 6.47 µM (inactive); with CAKI-1, 12.4 µM (inactive); in the assay on HCT-15, 35 µM; in the assay with Malme-3M, 22.4 µM (inactive). Besides, the GI50 is 15 µM (inactive) in the assay on OVCAR-3; 11.6 µM (inactive) with HCT-116; 13.7 µM (inactive) with LOX IMVI; 17.7 µM (inactive) in the assay with SK-MEL-2; 16.9 µM (inactive) with PC-3; 9.35 µM (inactive) in the assay with HOP-62. The GI50 in the assay on ACHN was 2.41 µM (inactive); with COLO 205, 3.27 µM (inactive); with MDA-MB-231 it was 10 µM (inactive); in the assay with RXF 393 it was 5.41 µM (inactive); in the assay on KM12 it was 46.3 µM (inactive); with SK-MEL-5, 18.2 µM (inactive).
With `c1cc2nnc1SCCSCCSc1ccc(nn1)SCCSCCS2`, the GI50 in the assay with UACC-62 is > 100 µM (inactive); with MOLT-4, > 100 µM (inactive); in the assay with SNB-19 it was > 100 µM (inactive); with CAKI-1 it was > 100 µM (inactive); in the assay on HCT-15 it was over 100 µM; in the assay with Malme-3M, > 100 µM (inactive). The GI50 was > 100 µM (inactive) with OVCAR-3; > 100 µM (inactive) in the assay with HCT-116; > 100 µM (inactive) with LOX IMVI; > 100 µM (inactive) in the assay with SK-MEL-2; > 100 µM (inactive) in the assay on PC-3; 31 µM (inactive) in the assay with HOP-62. Further, the GI50 was > 100 µM (inactive) in the assay on ACHN; > 100 µM (inactive) with COLO 205; 40.6 µM (inactive) in the assay on MDA-MB-231; > 100 µM (inactive) in the assay on RXF 393; > 100 µM (inactive) with KM12; > 100 µM (inactive) with SK-MEL-5.
Consider `COc1ccc(C(C#N)NNC(=O)Cc2ccccc2)cc1OC` (configuration not stated), for which the GI50 in the assay on UACC-62 is > 100 µM (inactive); in the assay on MOLT-4, > 100 µM (inactive); in the assay with CAKI-1 it was > 100 µM (inactive); in the assay with HCT-15 it was over 100 µM; with Malme-3M, > 100 µM (inactive); with HCT-116, > 100 µM (inactive). Besides, the GI50 in the assay with LOX IMVI, with SK-MEL-2, in the assay with HOP-62, in the assay with ACHN, in the assay on COLO 205 and with RXF 393 was > 100 µM (inactive) in each case. Moreover, the GI50 with KM12 and in the assay on SK-MEL-5 was > 100 µM (inactive) in each case.
`COC(=O)C1(C(=O)OC)N=C(C)OC1/C=C/c1ccccc1` (configuration not stated): the GI50 in the assay with UACC-62 is > 100 µM (inactive); in the assay on BT-549, > 100 µM (inactive); in the assay on MOLT-4, > 100 µM (inactive); in the assay with SNB-19, > 100 µM (inactive); with CAKI-1, > 100 µM (inactive); with HCT-15, over 100 µM. In addition, the GI50 in the assay with OVCAR-3, in the assay with HCT-116, with LOX IMVI, in the assay with SK-MEL-2, in the assay on PC-3 and in the assay with HOP-62 was > 100 µM (inactive) throughout. For the same compound, the GI50 in the assay with ACHN, in the assay on COLO 205, with RXF 393, in the assay with KM12 and in the assay on SK-MEL-5 was > 100 µM (inactive) each time.
For the compound `O=C(O)CCCCC1CCSS1` (stereo not drawn) [LIPOIC ACID, ALPHA], the GI50 in the assay on MOLT-4 was > 100 µM (inactive); with SNB-19 it was > 100 µM (inactive); with CAKI-1, > 100 µM (inactive); in the assay with HCT-15 it was over 100 µM; with Malme-3M, 43.1 µM (inactive); in the assay on OVCAR-3, > 100 µM (inactive). In addition, the GI50 in the assay on HCT-116, with LOX IMVI, in the assay with SK-MEL-2, in the assay with PC-3, in the assay with HOP-62 and with ACHN was > 100 µM (inactive) in each case. The GI50 in the assay with COLO 205, with MDA-MB-231, in the assay on KM12 and in the assay on SK-MEL-5 was > 100 µM (inactive) throughout.
